Holding throughout (assay): NCI anticancer screen, dose series, 48 h
For test [1], the system named is SW-620.
For test [2], the system named is RPMI-8226.
The test system of test [3] is SK-OV-3.
Test [4] deals with CCRF-CEM.
In test [5] the test system is HCT-116.
Test [6] deals with HCC 2998.
In test [7] the test system is OVCAR-5.
Test [8] concerns HL-60.
Test [9] has as its system A549.
The test system of test [10] is HCT-15.
For test [11], the system named is HT-29.
In test [12] the test system is NCI-H226.
The subject of test [13] is NCI-H460.
Test [14] relates to SF-295.
In test [15] the test system is DU-145.
For test [16], the system named is OVCAR-8.
Test [17] concerns EKVX.

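In this assay, cells in 96-well plates receive the compound at five concentrations for 48 hours. Endpoints are linearly interpolated between the surrounding concentrations. GI50 = concentration required for 50% inhibition of growth.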 Active and inactive are the calls of the source. No stated cut-off is given here; in the data, active = GI50 up to about 1.1 µM and inactive = higher.

For `C=CCOCCCC(=O)C(=[N+]=[N-])C(=O)OC`, the GI50 in [1], in [2], in test [3], in test [4], in [5] and in test [6] was > 100 µM (inactive) throughout. The GI50 in [7] was > 100 µM (inactive); in [8] it was > 100 µM (inactive); in test [9] it was > 100 µM (inactive); in test [10], more than 100 µM; in test [11] it was > 100 µM (inactive); in test [12], > 100 µM (inactive). Also, the GI50 in [13], in test [14], in [15] and in [16] was > 100 µM (inactive) in each case.

For the compound `CC(=O)Nc1ccc(/C=c2\sc3nnc(CCC(=O)Nc4ccccc4Cl)n3c2=O)cc1`, the GI50 was 27 µM (inactive) in test [1]; 20.8 µM (inactive) in test [2]; > 100 µM (inactive) in test [3]; 18.3 µM (inactive) in [4]; 37.7 µM (inactive) in test [5]; > 10 µM (inactive) in [6]. Moreover, the GI50 was > 100 µM (inactive) in [7]; 19.8 µM (inactive) in test [8]; 30.4 µM (inactive) in test [9]; 44.6 µM in test [10]; 54.2 µM (inactive) in [11]; 23.4 µM (inactive) in test [12]. Further, the GI50 was > 10 µM (inactive) in test [13], 18.1 µM (inactive) in test [14], > 100 µM (inactive) in test [17] and > 10 µM (inactive) in test [16].

`C/C(CC(=O)NCCc1ccccc1)=N\NC(=O)C[n+]1ccccc1`: the GI50 was > 100 µM (inactive) in test [1]; > 100 µM (inactive) in [2]; > 100 µM (inactive) in test [3]; > 10 µM (inactive) in test [4]; > 100 µM (inactive) in test [5]; > 100 µM (inactive) in [6]. Moreover, the GI50 in [7] was > 100 µM (inactive); in test [8], > 100 µM (inactive); in test [9], > 100 µM (inactive); in [10], more than 100 µM; in [11] it was > 100 µM (inactive); in [12], > 100 µM (inactive). Also, the GI50 in [13], in test [14], in [17] and in test [16] was > 100 µM (inactive) each time.

Take `C[Si](C)(C)CC(N)=O`: the GI50 in test [1], in test [2], in test [3], in test [4], in test [5] and in test [6] was > 100 µM (inactive) throughout. Further, the GI50 in [7] was > 100 µM (inactive); in [8] it was > 100 µM (inactive); in [9], > 100 µM (inactive); in test [10], more than 100 µM; in test [11], > 100 µM (inactive); in test [12], > 100 µM (inactive). In addition, the GI50 in test [13], in test [14], in test [17] and in [16] was > 100 µM (inactive) each time.

As for `CCOc1ccccc1NC(=O)CC(C(=O)OC)C(=O)C(=O)OC` (stereo not drawn), the GI50 in test [1], in test [2], in [3], in test [4], in test [5] and in test [6] was > 100 µM (inactive) throughout. Moreover, the GI50 in [7] was > 100 µM (inactive); in test [8], > 100 µM (inactive); in test [9], > 100 µM (inactive); in [10], more than 100 µM; in test [11], > 100 µM (inactive); in [12], > 100 µM (inactive). In addition, the GI50 in [13], in test [14], in test [17] and in test [16] was > 100 µM (inactive) throughout.

Take `COc1ccc2nc(C(=O)c3ccccc3)c(C)cc2c1`: the GI50 is 2.81 µM (inactive) in test [1]; 6.61 µM (inactive) in test [2]; 3.83 µM (inactive) in [3]; 4.2 µM (inactive) in test [4]; 4.63 µM (inactive) in test [5]; 6.01 µM (inactive) in [6]. Further, the GI50 in [7] was 33.9 µM (inactive); in [8], 3.38 µM (inactive); in test [9], 6.28 µM (inactive); in test [10], 3.3 µM; in test [11], 3.59 µM (inactive); in [12], 23.9 µM (inactive). In addition, the GI50 in test [13] is 7.24 µM (inactive); in [14] it was 2.81 µM (inactive); in test [17], 5.26 µM (inactive); in [16] it was 5.31 µM (inactive).

As to `CCN(CC)CCC(=O)/C=C/c1ccc(C)cc1`, the GI50 in [1] is 4.69 µM (inactive); in test [2], 3.99 µM (inactive); in test [3], 20.7 µM (inactive); in test [4], 10.1 µM (inactive); in test [5], 13.4 µM (inactive); in [6], 18.6 µM (inactive). In addition, the GI50 in [7] is 18.6 µM (inactive); in test [8] it was 10.8 µM (inactive); in test [9], 18.8 µM (inactive); in test [10], 12.5 µM; in test [11] it was 15.1 µM (inactive); in test [12] it was 17.1 µM (inactive). Besides, the GI50 is 15.7 µM (inactive) in [13], 18.1 µM (inactive) in test [14], 17.1 µM (inactive) in [17] and 13.2 µM (inactive) in test [16].

Take `C(=C\c1cc(CCc2nc3ccccc3[nH]2)n[nH]1)/c1ccccc1`: the GI50 in test [1] was > 100 µM (inactive); in test [2], > 100 µM (inactive); in test [3], > 100 µM (inactive); in test [4], 89.3 µM (inactive); in [5], > 100 µM (inactive); in test [6] it was > 100 µM (inactive). Also, the GI50 was > 100 µM (inactive) in [7]; > 100 µM (inactive) in test [8]; > 100 µM (inactive) in test [9]; more than 100 µM in test [10]; > 100 µM (inactive) in [11]; > 100 µM (inactive) in test [12]. In addition, the GI50 in test [13], in test [14], in [17] and in test [16] was > 100 µM (inactive) each time.

As to `CCOC(=O)CNC(=O)c1nc[nH]c1/N=N/N(C)C`, the GI50 in test [1], in [2], in test [3], in test [4], in [5] and in test [6] was > 100 µM (inactive) throughout. Moreover, the GI50 in test [7] was > 100 µM (inactive); in test [8], > 100 µM (inactive); in test [9] it was > 100 µM (inactive); in [10], more than 100 µM; in [11] it was > 100 µM (inactive); in [12] it was > 100 µM (inactive). Moreover, the GI50 in [13], in test [14], in test [17] and in test [16] was > 100 µM (inactive) throughout.

With `COC(=O)C(CC(=O)c1ccccc1)c1ccccc1NC(C)=O` (stereo not drawn), the GI50 in [1], in test [2], in [3], in [4], in test [5] and in test [6] was > 100 µM (inactive) each time. The GI50 is > 100 µM (inactive) in [7]; > 100 µM (inactive) in [8]; > 100 µM (inactive) in test [9]; more than 100 µM in test [10]; > 100 µM (inactive) in test [11]; > 100 µM (inactive) in test [12]. Further, the GI50 in [13], in test [14], in [17] and in test [16] was > 100 µM (inactive) each time.

As for `O=C(CC/C(CC(=O)c1ccc(Br)cc1)=N\O)Nc1ccc(Cl)c(Cl)c1`, the GI50 in [1] was 45.2 µM (inactive); in test [2] it was 46.1 µM (inactive); in [3], > 100 µM (inactive); in test [4], 37.6 µM (inactive); in test [5], > 100 µM (inactive); in [6] it was > 100 µM (inactive). Moreover, the GI50 in [7] is 54.6 µM (inactive); in test [8], 19.6 µM (inactive); in [9] it was > 100 µM (inactive); in test [10], 86.7 µM; in [11], 43.5 µM (inactive); in test [12] it was > 100 µM (inactive). In addition, the GI50 was > 100 µM (inactive) in test [13], > 100 µM (inactive) in [14], 29.3 µM (inactive) in test [17] and > 100 µM (inactive) in test [16].

Take `COc1cc2c(cc1OC)C1[C@@H](c3ccccc3)OCN1CC2` (stereo partly drawn): the GI50 in test [1] is 56.8 µM (inactive); in test [2] it was 44.4 µM (inactive); in test [3], > 46 µM (inactive); in [4], > 77.6 µM (inactive); in test [5], > 82.2 µM (inactive); in test [6] it was > 100 µM (inactive). For the same compound, the GI50 in test [7] was > 100 µM (inactive); in [8], 54.5 µM (inactive); in test [9], > 100 µM (inactive); in test [10], more than 90.6 µM; in test [11], > 100 µM (inactive); in test [12] it was > 100 µM (inactive). Moreover, the GI50 in [13], in [14], in test [17] and in test [16] was > 100 µM (inactive) each time.

Take `CC1CC2(S(=O)(=O)c3ccccc3)ON1CC2S(=O)(=O)c1ccccc1` (stereo not drawn): the GI50 in test [1], in test [2], in test [3], in test [4], in test [5] and in [6] was > 100 µM (inactive) each time. Further, the GI50 was > 100 µM (inactive) in test [7]; > 100 µM (inactive) in test [8]; > 100 µM (inactive) in test [9]; more than 100 µM in [10]; > 100 µM (inactive) in [11]; > 100 µM (inactive) in test [12]. Also, the GI50 in [13], in [14], in test [17] and in [16] was > 100 µM (inactive) throughout.

The values above are taken from ChEMBL document CHEMBL1201862, “PubChem BioAssay data set” (2004).
